Columns and labels:
Format in all cases: functional, organism-based
Enterovirus C [1] = assay: Antiviral activity against Poliovirus 10235 serotype PV1 obtained from circulating vaccine infected in […] LLC-MK2 cells assessed as inhibition of viral-replication induced cytopathic effect; conditions: 10235 serotype PV1, LLC-MK2
Enterovirus C [2] = assay: Antiviral activity against Poliovirus 10236 serotype PV1 obtained from circulating vaccine infected in […] LLC-MK2 cells assessed as inhibition of viral-replication induced cytopathic effect; conditions: 10236 serotype PV1, LLC-MK2
Enterovirus C [3] = assay: Antiviral activity against Poliovirus 10238 serotype PV1 obtained from circulating vaccine infected in […] LLC-MK2 cells assessed as inhibition of viral-replication induced cytopathic effect; conditions: 10238 serotype PV1, LLC-MK2
Enterovirus C [4] = assay: Antiviral activity against Poliovirus 10237 serotype PV1 obtained from circulating vaccine infected in […] LLC-MK2 cells assessed as inhibition of viral-replication induced cytopathic effect; conditions: 10237 serotype PV1, LLC-MK2
Enterovirus C [5] = assay: Antiviral activity against Poliovirus 10239 serotype PV1 obtained from circulating vaccine infected in […] LLC-MK2 cells assessed as inhibition of viral-replication induced cytopathic effect; conditions: 10239 serotype PV1, LLC-MK2
Enterovirus C [6] = assay: Antiviral activity against Poliovirus 10240 serotype PV1 obtained from circulating vaccine infected in […] LLC-MK2 cells assessed as inhibition of viral-replication induced cytopathic effect; conditions: 10240 serotype PV1, LLC-MK2
Enterovirus C [7] = assay: Antiviral activity against Poliovirus 10241 serotype PV1 obtained from circulating vaccine infected in […] LLC-MK2 cells assessed as inhibition of viral-replication induced cytopathic effect; conditions: 10241 serotype PV1, LLC-MK2
Enterovirus C [8] = assay: Antiviral activity against Poliovirus 10242 serotype PV1 obtained from circulating vaccine infected in […] LLC-MK2 cells assessed as inhibition of viral-replication induced cytopathic effect; conditions: 10242 serotype PV1, LLC-MK2
Enterovirus C [9] = assay: Antiviral activity against Poliovirus 10690 serotype PV1 obtained from circulating vaccine infected in […] LLC-MK2 cells assessed as inhibition of viral-replication induced cytopathic effect; conditions: 10690 serotype PV1, LLC-MK2
Enterovirus C [10] = assay: Antiviral activity against Poliovirus 10691 serotype PV1 obtained from circulating vaccine infected in […] LLC-MK2 cells assessed as inhibition of viral-replication induced cytopathic effect; conditions: 10691 serotype PV1, LLC-MK2
Enterovirus C [11] = assay: Antiviral activity against Poliovirus 10692 serotype PV1 obtained from circulating vaccine infected in […] LLC-MK2 cells assessed as inhibition of viral-replication induced cytopathic effect; conditions: 10692 serotype PV1, LLC-MK2
Enterovirus C [12] = assay: Antiviral activity against Poliovirus 10693 serotype PV1 obtained from circulating vaccine infected in […] LLC-MK2 cells assessed as inhibition of viral-replication induced cytopathic effect; conditions: 10693 serotype PV1, LLC-MK2
Enterovirus C [13] = assay: Antiviral activity against Poliovirus 10694 serotype PV1 obtained from immunodeficient chronic excretor infected in […] LLC-MK2 cells assessed as inhibition of viral-replication induced cytopathic effect; conditions: 10694 serotype PV1, LLC-MK2
Enterovirus C [14] = assay: Antiviral activity against Poliovirus 10695 serotype PV1 obtained from immunodeficient chronic excretor infected in […] LLC-MK2 cells assessed as inhibition of viral-replication induced cytopathic effect; conditions: 10695 serotype PV1, LLC-MK2
Enterovirus C [15] = assay: Antiviral activity against Poliovirus 10668 serotype PV1 obtained from immunodeficient chronic excretor infected in […] LLC-MK2 cells assessed as inhibition of viral-replication induced cytopathic effect; conditions: 10668 serotype PV1, LLC-MK2
Enterovirus C [16] = assay: Antiviral activity against Poliovirus 10689 serotype PV1 obtained from immunodeficient chronic excretor infected in […] LLC-MK2 cells assessed as inhibition of viral-replication induced cytopathic effect; conditions: 10689 serotype PV1, LLC-MK2
Enterovirus C [17] = assay: Antiviral activity against Poliovirus 10223 serotype PV1 obtained from immunodeficient chronic excretor infected in […] LLC-MK2 cells assessed as inhibition of viral-replication induced cytopathic effect; conditions: 10223 serotype PV1, LLC-MK2
Enterovirus C [18] = assay: Antiviral activity against Poliovirus 10222 serotype PV1 obtained from immunodeficient chronic excretor infected in […] LLC-MK2 cells assessed as inhibition of viral-replication induced cytopathic effect; conditions: 10222 serotype PV1, LLC-MK2
Enterovirus C [19] = assay: Antiviral activity against Poliovirus 10225 serotype PV1 obtained from immunodeficient chronic excretor infected in […] LLC-MK2 cells assessed as inhibition of viral-replication induced cytopathic effect; conditions: 10225 serotype PV1, LLC-MK2
Enterovirus C [20] = assay: Antiviral activity against Poliovirus 10224 serotype PV1 obtained from immunodeficient chronic excretor infected in […] LLC-MK2 cells assessed as inhibition of viral-replication induced cytopathic effect; conditions: 10224 serotype PV1, LLC-MK2
Enterovirus C [21] = assay: Antiviral activity against Poliovirus Brunhilde serotype PV1 infected in […] LLC-MK2 cells assessed as inhibition of viral-replication induced cytopathic effect
Enterovirus C [22] = assay: Antiviral activity against Poliovirus Mahoney serotype PV1 infected in […] LLC-MK2 cells assessed as inhibition of viral-replication induced cytopathic effect
Enterovirus C [23] = assay: Antiviral activity against Poliovirus PV1-LSc/2ab serotype PV1 vaccine-derived infected in […] LLC-MK2 cells assessed as inhibition of viral-replication induced cytopathic effect; conditions: PV1-LSc/2ab serotype PV1, LLC-MK2
Enterovirus C [24] = assay: Antiviral activity against Poliovirus 10229 serotype PV2 obtained from circulating vaccine infected in […] LLC-MK2 cells assessed as inhibition of viral-replication induced cytopathic effect; conditions: 10229 serotype PV2, LLC-MK2
Enterovirus C [25] = assay: Antiviral activity against Poliovirus 10230 serotype PV2 obtained from circulating vaccine infected in […] LLC-MK2 cells assessed as inhibition of viral-replication induced cytopathic effect; conditions: 10230 serotype PV2, LLC-MK2
Enterovirus C [26] = assay: Antiviral activity against Poliovirus 10231 serotype PV2 obtained from circulating vaccine infected in […] LLC-MK2 cells assessed as inhibition of viral-replication induced cytopathic effect; conditions: 10231 serotype PV2, LLC-MK2
Enterovirus C [27] = assay: Antiviral activity against Poliovirus 10232 serotype PV2 obtained from circulating vaccine infected in […] LLC-MK2 cells assessed as inhibition of viral-replication induced cytopathic effect; conditions: 10232 serotype PV2, LLC-MK2
Enterovirus C [28] = assay: Antiviral activity against Poliovirus 10233 serotype PV2 obtained from circulating vaccine infected in […] LLC-MK2 cells assessed as inhibition of viral-replication induced cytopathic effect; conditions: 10233 serotype PV2, LLC-MK2
Enterovirus C [29] = assay: Antiviral activity against Poliovirus 10234 serotype PV2 obtained from circulating vaccine infected in […] LLC-MK2 cells assessed as inhibition of viral-replication induced cytopathic effect; conditions: 10234 serotype PV2, LLC-MK2
Enterovirus C [30] = assay: Antiviral activity against Poliovirus 10219 serotype PV2 obtained from circulating vaccine infected in […] LLC-MK2 cells assessed as inhibition of viral-replication induced cytopathic effect; conditions: 10219 serotype PV2, LLC-MK2
Enterovirus C [31] = assay: Antiviral activity against Poliovirus 10220 serotype PV2 obtained from circulating vaccine infected in […] LLC-MK2 cells assessed as inhibition of viral-replication induced cytopathic effect; conditions: 10220 serotype PV2, LLC-MK2

For `COc1ccc(OCc2ccc(COc3c(Cl)cccc3Cl)cc2)c(Cl)c1`, the EC50 (Enterovirus C [1]) was 18 nM, the EC50 (Enterovirus C [2]) was 29 nM and the EC50 (Enterovirus C [3]) was 14 nM. The EC50 (Enterovirus C [4]) was 11 nM, the EC50 (Enterovirus C [5]) was 14 nM and the EC50 (Enterovirus C [6]) was 15 nM. For the same compound, the EC50 (Enterovirus C [7]) was 83 nM, the EC50 (Enterovirus C [8]) was 17 nM and the EC50 (Enterovirus C [9]) was 29 nM. For the same compound, the EC50 (Enterovirus C [10]) was 18 nM, the EC50 (Enterovirus C [11]) was 29 nM and the EC50 (Enterovirus C [12]) was 8 nM. For the same compound, the EC50 (Enterovirus C [13]) was 14 nM, the EC50 (Enterovirus C [14]) was 8 nM and the EC50 (Enterovirus C [15]) was 21 nM. For the same compound, the EC50 (Enterovirus C [16]) was 42 nM, the EC50 (Enterovirus C [17]) was 10 nM and the EC50 (Enterovirus C [18]) was 15 nM. It also gave an EC50 (Enterovirus C [19]) of 17 nM, an EC50 (Enterovirus C [20]) of 69 nM and an EC50 (Enterovirus C [21]) of 18 nM. The EC50 (Enterovirus C [22]) was 76 nM, the EC50 (Enterovirus C [23]) was 17 nM and the EC50 (Enterovirus C [24]) was 20 nM. The EC50 (Enterovirus C [25]) was 36 nM, the EC50 (Enterovirus C [26]) was 28 nM and the EC50 (Enterovirus C [27]) was 19 nM. The EC50 (Enterovirus C [28]) was 24 nM, the EC50 (Enterovirus C [29]) was 9 nM and the EC50 (Enterovirus C [30]) was 23 nM. It also gave an EC50 (Enterovirus C [31]) of 10 nM.

Reference: ChEMBL document CHEMBL1649227, “In vitro antiviral activity of V-073 against polioviruses” (Antimicrob Agents Chemother, 2009)
